According to patent publication US20160159814A1, “GLYCINE TRANSPORTER INHIBITOR” (TAISHO PHARMACEUTICAL CO., LTD., priority 2013, published 2016):
Read-outs that look alike come from different tables or passages of the source.

Biological target: T1, human type 1 glycine transporter (GlyT1) (Homo sapiens, UniProt P48067)
T1 construct: T98G cells (glioma cells) expressing human type 1 glycine transporter (GlyT1) were used; endogenous in cells; host or cells: T98G cells (human glioma cells)
T1 sequence (P48067 1-706): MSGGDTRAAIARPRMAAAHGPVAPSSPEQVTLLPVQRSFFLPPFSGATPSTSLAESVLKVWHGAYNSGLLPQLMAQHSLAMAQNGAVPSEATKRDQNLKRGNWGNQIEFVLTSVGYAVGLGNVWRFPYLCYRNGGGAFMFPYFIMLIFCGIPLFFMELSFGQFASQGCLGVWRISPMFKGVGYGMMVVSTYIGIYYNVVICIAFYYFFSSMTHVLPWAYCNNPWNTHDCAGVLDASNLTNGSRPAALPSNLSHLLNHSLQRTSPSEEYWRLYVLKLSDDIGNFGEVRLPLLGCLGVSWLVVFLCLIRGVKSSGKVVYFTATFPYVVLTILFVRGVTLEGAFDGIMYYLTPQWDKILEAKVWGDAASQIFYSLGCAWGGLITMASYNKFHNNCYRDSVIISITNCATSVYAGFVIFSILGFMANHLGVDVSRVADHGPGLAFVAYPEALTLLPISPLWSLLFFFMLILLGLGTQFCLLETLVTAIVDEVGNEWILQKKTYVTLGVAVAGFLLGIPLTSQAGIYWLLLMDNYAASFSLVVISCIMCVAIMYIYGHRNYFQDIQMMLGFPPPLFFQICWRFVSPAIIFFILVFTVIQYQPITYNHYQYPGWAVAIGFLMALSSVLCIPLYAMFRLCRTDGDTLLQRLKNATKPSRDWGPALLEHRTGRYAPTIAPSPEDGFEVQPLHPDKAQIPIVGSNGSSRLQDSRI
Assay: Glycine uptake inhibition experiment ([3H] glycine uptake in T98G cells expressing GlyT1)
Type: cell-based
How it was run: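 T98G glioma cells expressing human GlyT1 were pretreated 10 min with compound in HEPES buffer pH 7.4 (0.2% BSA), then incubated with compound plus 250 nM final [3H]glycine for 15 min at room temperature. Intracellular radioactivity was counted after NaOH lysis; 10 μM ALX5407 defined non-specific uptake. IC50 came from 10^−9–10^−5 M curves.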

IC50 (glycine uptake inhibition) [nM]	IC50 [nM]	Compound
91		C[C@H](O)c1cccc2c1C(F)(F)C(=O)N2Cc1cncc(C#N)c1 [Compound 70, 5-({3,3-difluoro-4-[(1S)-1-hydroxyethyl]-2-oxo-2,3-dihydro-1H-indol-1-yl}methyl)pyridine-3-carbonitile]
	480	O=C1N(Cc2cncc(C3CC3)c2)c2cccc(C(O)C(F)F)c2C1(F)F (single isomer, unassigned) [Compound 179, 1-[(5-cyclopropylpyridin-3-yl)methyl]-4-(2,2-difluoro-1-hydroxyethyl)-3,3-difluoro-1,3-dihydro-2H-indol-2-one]
	4.6	O=C1N(Cc2ccc(F)c(Br)n2)c2cccc(C(O)C(F)F)c2C1(F)F (single isomer, unassigned) [Compound 274, 1-[(6-bromo-5-fluoropyridin-2-yl)methyl]-4-(2,2-difluoro-1-hydroxyethyl)-3,3-difluoro-1,3-dihydro-2H-indol-2-one]
	44	Cn1c(CN2C(=O)C(F)(F)c3c(C(O)C(F)F)cccc32)nc2cc(F)ccc2c1=O (single isomer, unassigned) [Compound 178, 2-{[4-(2,2-difluoro-1-hydroxyethyl)-3,3-difluoro-2-oxo-2,3-dihydro-1H-indol-1-yl]methyl}-7-fluoro-3-methylquinazolin-4(3H)-one]
	60	COc1cc(CN2C(=O)C(F)(F)c3c([C@H](C)O)cccc32)cnc1F [Compound 240, 3,3-difluoro-1-[(6-fluoro-6-methoxypyridin-3-yl)methyl]-4-[(1S)-1-hydroxyethyl]-1,3-dihydro-2H-indol-2-one]
76		C[C@H](O)c1cccc2c1C(F)(F)C(=O)N2Cc1cncc(F)c1 [Compound 63, 3,3-difluoro-1-[(5-fluoropyridin-3-yl)methyl]-4-[(1S)-1-hydroxyethyl]-1,3-dihydro-2H-indol-2-one]
100		Cn1c(=O)c(CN2C(=O)C(F)(F)c3c([C@@H](O)C(F)(F)F)cccc32)nc2ccccc21 [Compound 141, 3-({3,3-difluoro-2-oxo-4-[(1R)-2,2,2-trifluoro-1-hydroxyethyl]-2,3-dihydro-1H-indol-1-yl}methyl)-1-methylquinoxalin-2(1H)-one]
810		COc1ccc(CN2C(=O)C(F)(F)c3c([C@H](C)O)cccc32)nc1 [Compound 106, 3,3-difluoro-4-[(1S)-1-hydroxyethyl]-1-[(5-methoxypydin-2-yl)methyl]-1,3-dihydro-2H-indol-2-one]
18		COc1cccc(CN2C(=O)C(F)(F)c3c([C@H](C)O)cccc32)c1 [Compound 59, 3,3-difluoro-4-[(1S)-1-hydroxyethyl]-1-(3-methoxybenzyl)-1,3-dihydro-2H-indol-2-one]
6.6		C[C@H](O)c1cccc2c1C(F)(F)C(=O)N2Cc1cccc(C(F)(F)F)c1 [Compound 58, 3,3-difluoro-4-[(1S)-1-hydroxyethyl]-1-[3-(trifluoromethyl)benzyl]-1,3-dihydro-2H-indol-2-one]
420		C[C@H](O)c1cccc2c1C(F)(F)C(=O)N2Cc1cc(C#N)ccn1 [Compound 85, 2-({3,3-difluoro-4-[(1S)-1-hydroxyethyl]-2-oxo-2,3-dihydro-1H-indol-1-yl}methyl)pyridine-4-carbonitrile]
110		O=C1N(Cc2ccc(F)nc2)c2cccc(C(O)C(F)F)c2C1(F)F (single isomer, unassigned) [Compound 156, 4-(2,2-difluoro-1-hydroxyethyl)-3,3-difluoro-1-[(6-fluoropyridin-3-yl)methyl]-1,3-dihydro-2H-indol-2-one]
18		C[C@H](O)c1cccc2c1C(F)(F)C(=O)N2Cc1cc(Cl)ccn1 [Compound 65, 1-[(4-chloropyridin-2-yl)methyl]-3,3-difluoro-4-[(1S)-1-hydroxyethyl]-1,3-dihydro-2H-indol-2-one]
